Series [1] deals with CFA-induced inflammatory pain model. Put plainly: CFA-induced edema size (hindpaw diameter). The class given is in vivo. The note with it: rat, i.p. LIT-001 10 mg/kg at D1 after CFA. The procedure:
LIT-001 was prepared as described in Frantz et al.[20]. For in vivo biological assays, it was dissolved in carboxymethyl cellulose (CMC, 1%) - NaCl (0.9%) and administered at the dose of 10 mg/kg. LIT-001 or vehicle were injected intraperitoneally (i.p.), in a volume of 10 ml/kg[20], 24 h after the induction of the CFA-induced painful inflammatory sensitization. To confirm the implication of the OTR we injected (i.p.) also L-368,899 (Sigma, St. Louis, MO) (1 mg/kg), an OTR antagonist, in combination with LIT-001 in another group of rats[11].
Male Wistar rats (300 g; JANVIER LABS, Le Genest St. Isle, France) were used for this study. They were housed by groups of 3 or 4 under standard conditions (room temperature, 22 °C; 12/12 h light/dark cycle) with ad libitum access to food and water and behavioral enrichment. All animals were manipulated and habituated to the tests and to the room for at least 2 weeks. All behavioral tests were done during the light period (i.e., between 7:00 and 19:00). All the procedures were performed in accordance with European committee council Direction, authorization from French Department of Agriculture and from the regional ethic committee.
In order to induce a peripheral inflammation, 100 μl of complete Freund adjuvant (CFA; Sigma, St. Louis, MO), was injected in the right hindpaw of the rat. […]

Series [2] deals with T1, COX(2) (Homo sapiens, UniProt P35354).
T1 construct: Eurofins (contract assay)
As to the kind of experiment: enzyme inhibition. The class given is biochemical. The protocol:
(§1) In vitro profiling of LIT-001 was performed by Eurofins as described in the Eurofins SafetyScreen-Functional panel, 2018[31]. The hepatotoxicity of LIT-001 was studied with cryo-preserved mouse hepatocytes. After unfreezing (optiTHAW and optiINCUBATE media, Xenotech) and cell viability control, cells (2 × 10^6 cells/ml) were dispatched in 96 well microtiterplates. LIT-001 was added to reach a concentration 1 μM in the presence of 1 × 10^6 cells/mL in a volume of 100 μl/well. The incubation was stopped at 4, 20, 40, 80 and 120 min in adding 100 μl of acetonitrile at 0 °C. A positive control was treated in the same conditions. All samples were analyzed by UHPLC coupled to a mass spectrometer (Shimadzu LC-MS 8030).

The target in series [3] is T2, MAO-A from human placenta (Homo sapiens, UniProt P21397).
T2 construct: MAO-A from human placenta; tissue Eurofins (contract assay); host or cells: human placenta
As to the kind of experiment: enzyme inhibition. The class given is biochemical. Conditions: range given for five enzymes together, below significance. The protocol: as §1

Series [4] deals with T3, Lck kinase (Homo sapiens, UniProt P06239).
T3 construct: Eurofins (contract assay)
As to the kind of experiment: enzyme inhibition. The class given is biochemical. The note with it: range given for five enzymes together, below significance. The procedure:
as §1

Series [5] deals with T4, PDE4D2 (Homo sapiens, UniProt Q08499).
T4 construct: Eurofins (contract assay)
Put plainly: enzyme inhibition. The class given is biochemical. The protocol:
as §1

The target of series [6] is T5, human recombinant COX(1) (Homo sapiens, UniProt P23219).
T5 construct: Eurofins (contract assay)
Put plainly: enzyme inhibition. Format: biochemical. Conditions: range given for five enzymes together, below significance. The protocol: as §1

The target in series [7] is T6, PDE3A (Homo sapiens, UniProt Q14432).
T6 construct: Eurofins (contract assay)
As to the kind of experiment: enzyme inhibition. Format: biochemical. The note with it: range given for five enzymes together, below significance. The procedure:
as §1

Series [8] concerns the target T7, acetylcholinesterase (Homo sapiens, UniProt P22303).
T7 construct: Eurofins (contract assay)
As to the kind of experiment: enzyme inhibition. Format: biochemical. The note with it: range given for five enzymes together, below significance. The procedure: as §1

Series [9] is described as follows: stability in human hepatocytes. The class given is in vitro ADME. The protocol:
Stability of LIT-001 was determined in human hepatocytes. Cells were unfrozen and their viability measured (Tryptan blue). Cells are suspended (2 × 10^6 cells/ml) and dispensed in 96 well microtiterplates (50 μl/well). LIT-001 (50 μl of a 2 μM in the incubation media) was added. The final concentration of the compound was 1 μM in 1 × 10^6 cells/ml. The incubation volume was 100 μl/well. Incubations were stopped after 0, 4, 20, 40, 80 and 120 min in mixing the well content with 100 μl acetonitrile at 0 °C. A positive control (testosterone) was prepared in same conditions. All samples were analyzed by LC-MS/MS (UHPLC coupled to a triple quadripole Shimadzu LC-MS 8030). Each measurement was performed in triplicate.

Series [10] has as its system V2 vasopressin receptor (V2R). More on the design: method as in PMID 30199637. The note with it: cited from earlier work.

Some results are limits rather than exact numbers.

T6 sequence (Q14432 whole entry): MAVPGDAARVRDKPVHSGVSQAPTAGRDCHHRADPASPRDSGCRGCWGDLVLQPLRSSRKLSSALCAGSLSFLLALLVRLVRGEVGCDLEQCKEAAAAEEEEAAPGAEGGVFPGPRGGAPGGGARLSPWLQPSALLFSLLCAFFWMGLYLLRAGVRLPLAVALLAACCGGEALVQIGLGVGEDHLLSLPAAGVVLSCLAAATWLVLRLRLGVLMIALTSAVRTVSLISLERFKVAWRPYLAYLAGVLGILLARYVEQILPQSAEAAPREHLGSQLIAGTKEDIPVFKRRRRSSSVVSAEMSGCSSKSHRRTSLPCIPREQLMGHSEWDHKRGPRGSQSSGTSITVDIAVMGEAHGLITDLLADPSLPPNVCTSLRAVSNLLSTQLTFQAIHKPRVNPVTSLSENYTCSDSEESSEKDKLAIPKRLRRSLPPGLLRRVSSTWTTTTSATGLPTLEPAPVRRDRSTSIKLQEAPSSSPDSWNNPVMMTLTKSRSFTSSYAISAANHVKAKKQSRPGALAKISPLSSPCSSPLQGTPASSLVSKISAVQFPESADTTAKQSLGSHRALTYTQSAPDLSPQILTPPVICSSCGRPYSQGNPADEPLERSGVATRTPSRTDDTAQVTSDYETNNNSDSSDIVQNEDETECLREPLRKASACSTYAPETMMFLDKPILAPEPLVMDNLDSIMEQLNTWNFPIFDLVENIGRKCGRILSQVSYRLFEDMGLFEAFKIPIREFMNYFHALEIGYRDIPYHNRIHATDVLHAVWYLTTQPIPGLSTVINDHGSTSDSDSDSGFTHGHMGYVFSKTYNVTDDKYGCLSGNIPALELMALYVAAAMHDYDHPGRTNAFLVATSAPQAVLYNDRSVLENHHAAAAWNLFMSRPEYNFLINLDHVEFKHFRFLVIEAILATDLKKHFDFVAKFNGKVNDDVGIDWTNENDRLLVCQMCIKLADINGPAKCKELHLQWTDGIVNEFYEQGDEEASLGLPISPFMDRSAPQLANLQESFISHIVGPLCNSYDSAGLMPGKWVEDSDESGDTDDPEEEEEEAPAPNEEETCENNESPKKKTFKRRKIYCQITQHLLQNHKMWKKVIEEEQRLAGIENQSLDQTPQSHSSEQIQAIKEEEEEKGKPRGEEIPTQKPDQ
T3 sequence (P06239 whole entry): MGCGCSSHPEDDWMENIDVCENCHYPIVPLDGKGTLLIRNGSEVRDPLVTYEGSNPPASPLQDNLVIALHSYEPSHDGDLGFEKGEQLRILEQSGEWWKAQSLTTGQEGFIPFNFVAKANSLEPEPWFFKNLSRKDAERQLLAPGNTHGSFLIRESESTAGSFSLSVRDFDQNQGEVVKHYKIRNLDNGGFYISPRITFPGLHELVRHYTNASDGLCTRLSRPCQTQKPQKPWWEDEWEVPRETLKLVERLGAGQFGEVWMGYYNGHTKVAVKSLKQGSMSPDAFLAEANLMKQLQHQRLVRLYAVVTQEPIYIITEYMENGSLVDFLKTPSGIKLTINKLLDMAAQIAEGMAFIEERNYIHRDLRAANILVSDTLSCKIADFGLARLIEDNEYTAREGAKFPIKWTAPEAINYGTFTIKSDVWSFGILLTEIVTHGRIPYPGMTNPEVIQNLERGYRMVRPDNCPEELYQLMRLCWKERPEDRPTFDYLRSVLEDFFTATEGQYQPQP
T7 sequence (P22303 32-614): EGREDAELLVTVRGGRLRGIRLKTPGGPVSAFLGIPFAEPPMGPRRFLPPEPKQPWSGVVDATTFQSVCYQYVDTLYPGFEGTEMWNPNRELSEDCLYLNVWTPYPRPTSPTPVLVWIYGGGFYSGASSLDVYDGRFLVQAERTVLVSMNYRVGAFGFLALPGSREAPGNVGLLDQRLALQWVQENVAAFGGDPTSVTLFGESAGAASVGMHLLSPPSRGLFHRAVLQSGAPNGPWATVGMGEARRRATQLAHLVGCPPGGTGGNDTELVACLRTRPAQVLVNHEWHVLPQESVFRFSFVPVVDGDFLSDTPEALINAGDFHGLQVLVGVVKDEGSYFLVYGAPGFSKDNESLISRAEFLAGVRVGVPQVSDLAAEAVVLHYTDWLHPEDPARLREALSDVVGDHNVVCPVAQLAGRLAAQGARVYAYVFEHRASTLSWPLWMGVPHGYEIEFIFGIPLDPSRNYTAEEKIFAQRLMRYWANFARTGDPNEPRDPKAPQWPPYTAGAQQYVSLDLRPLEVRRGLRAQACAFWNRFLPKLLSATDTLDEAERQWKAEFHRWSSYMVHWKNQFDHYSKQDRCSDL
T4 sequence (Q08499 303-809): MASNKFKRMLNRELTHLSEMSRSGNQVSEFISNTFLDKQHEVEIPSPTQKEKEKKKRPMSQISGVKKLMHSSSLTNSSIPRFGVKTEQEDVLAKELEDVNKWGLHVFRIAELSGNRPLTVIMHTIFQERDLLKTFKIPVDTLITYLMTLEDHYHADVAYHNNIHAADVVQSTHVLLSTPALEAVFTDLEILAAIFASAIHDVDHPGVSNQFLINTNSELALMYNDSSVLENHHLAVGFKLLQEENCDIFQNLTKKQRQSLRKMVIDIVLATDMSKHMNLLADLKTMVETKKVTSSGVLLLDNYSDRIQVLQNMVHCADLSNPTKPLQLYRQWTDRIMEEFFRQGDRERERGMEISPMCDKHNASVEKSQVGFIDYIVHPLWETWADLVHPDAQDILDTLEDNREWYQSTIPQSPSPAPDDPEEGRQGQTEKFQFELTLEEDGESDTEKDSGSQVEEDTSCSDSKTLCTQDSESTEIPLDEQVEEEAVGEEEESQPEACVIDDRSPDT
T5 sequence (P23219 24-599): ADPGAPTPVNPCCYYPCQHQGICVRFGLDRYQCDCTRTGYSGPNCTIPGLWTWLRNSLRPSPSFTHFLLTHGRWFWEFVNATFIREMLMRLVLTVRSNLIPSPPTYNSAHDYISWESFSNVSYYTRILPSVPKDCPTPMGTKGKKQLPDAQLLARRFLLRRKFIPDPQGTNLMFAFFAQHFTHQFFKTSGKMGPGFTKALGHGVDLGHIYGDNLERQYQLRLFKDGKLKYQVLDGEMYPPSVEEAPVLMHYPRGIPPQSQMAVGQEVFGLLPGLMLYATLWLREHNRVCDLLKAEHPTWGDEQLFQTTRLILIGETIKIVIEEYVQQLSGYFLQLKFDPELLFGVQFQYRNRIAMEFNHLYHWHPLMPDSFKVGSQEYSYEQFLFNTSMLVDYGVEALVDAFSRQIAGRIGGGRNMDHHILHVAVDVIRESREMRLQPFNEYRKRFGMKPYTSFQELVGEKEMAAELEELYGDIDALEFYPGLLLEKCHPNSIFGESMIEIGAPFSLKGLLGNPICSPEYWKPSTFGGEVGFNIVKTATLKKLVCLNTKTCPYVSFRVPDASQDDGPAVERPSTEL
T2 sequence (P21397 whole entry): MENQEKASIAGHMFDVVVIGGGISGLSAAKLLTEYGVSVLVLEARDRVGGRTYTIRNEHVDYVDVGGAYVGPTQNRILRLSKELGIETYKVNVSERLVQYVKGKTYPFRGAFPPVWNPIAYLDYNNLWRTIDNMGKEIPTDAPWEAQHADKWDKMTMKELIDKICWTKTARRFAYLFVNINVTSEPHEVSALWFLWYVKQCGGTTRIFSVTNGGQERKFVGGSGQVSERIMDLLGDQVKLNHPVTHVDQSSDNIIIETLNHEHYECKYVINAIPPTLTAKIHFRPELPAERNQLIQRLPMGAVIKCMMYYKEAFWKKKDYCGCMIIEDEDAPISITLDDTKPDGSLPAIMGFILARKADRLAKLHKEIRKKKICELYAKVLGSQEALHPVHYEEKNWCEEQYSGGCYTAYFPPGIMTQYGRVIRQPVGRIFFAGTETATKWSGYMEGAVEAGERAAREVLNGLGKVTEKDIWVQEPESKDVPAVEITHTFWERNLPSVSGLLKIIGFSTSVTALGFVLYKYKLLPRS
T1 sequence (P35354 18-604): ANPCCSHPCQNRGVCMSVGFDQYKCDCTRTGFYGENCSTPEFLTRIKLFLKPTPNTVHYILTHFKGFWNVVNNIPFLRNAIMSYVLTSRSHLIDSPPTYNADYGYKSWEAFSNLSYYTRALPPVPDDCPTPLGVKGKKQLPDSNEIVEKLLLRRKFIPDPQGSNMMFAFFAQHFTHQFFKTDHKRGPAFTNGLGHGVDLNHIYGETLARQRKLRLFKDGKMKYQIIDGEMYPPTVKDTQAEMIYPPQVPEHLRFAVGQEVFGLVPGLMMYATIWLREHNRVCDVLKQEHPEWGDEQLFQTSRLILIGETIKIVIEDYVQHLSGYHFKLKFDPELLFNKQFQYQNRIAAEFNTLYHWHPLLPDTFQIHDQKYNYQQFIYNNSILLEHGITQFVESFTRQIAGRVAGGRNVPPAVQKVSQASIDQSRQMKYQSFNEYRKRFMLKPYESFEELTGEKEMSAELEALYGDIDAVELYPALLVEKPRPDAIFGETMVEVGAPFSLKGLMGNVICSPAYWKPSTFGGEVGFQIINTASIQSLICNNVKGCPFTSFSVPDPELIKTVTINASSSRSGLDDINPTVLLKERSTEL

On to `Cc1cc(C(=O)N2Cc3cnn(C)c3Nc3ccccc32)ccc1CNC(=O)N1CCC[C@H]1C(=S)N(C)C` [LIT-001], for which, in series [1], the CFA-induced edema size is given as 9.49 ± 0.23 mm. Besides, the inhibition (as a rule, the drop in the measured response relative to a control, in per cent) at 5 µM in series [2] is 24.6%; in [3] it was 6.4 to 9.5%; in series [4], 6.4 to 9.5%; in series [5], 23.1%; in series [6] it was 6.4 to 9.5%; in series [7], 6.4 to 9.5%. Further, the inhibition at 5 µM in series [8] lay in the range of 6.4 to 9.5%. In addition, in series [9] (1 μM, 37 °C, after 2 hours), the “degradation on human hepatocytes” value is on record as “no degradation was observed”. Further, in series [9] (human, human hepatocytes (cryopreserved, suspension), from in vitro stability results), the half-life (in general, the time in which the quantity being followed falls by half) at 1 μM is more than 2 h. In [10], the “V2R agonism in functional assays” value is “potent V2R agonist”.

Values taken from paper PMC7033278, “A Nonpeptide Oxytocin Receptor Agonist for a Durable Relief of Inflammatory Pain” (Scientific Reports, 2020).
